According to patent US20260034075A1, “CHOLINE CARBOXYLIC ACID BASED IONIC LIQUIDS AS ANTIMICROBIAL AGENTS” (University of Mississippi, priority 2022, published 2026):

Tests used:
Type in all cases: cell-based
E. coli = E. coli kinetic study (OD600 over 16 hours, first-order kinetics fit)
Method: E. coli Kinetic Study. A 96-well plate was filled with 180 μL of E. coli cells that were cultured as mentioned above and treated with 20 μL CADA 1:1 of concentrations ranging from the lethal concentration to one-sixteenth of that concentration to determine how the growth inhibition is affected with changing concentration of the IL. 20 μL of growth media was added to the “untreated” cells such that all wells contained a total volume of 200 μL. The plate was heated to 37° C. with triplicate OD600 measurements taken every 20 minutes over the course of 16 hours with a Biotek Synergy H1 microplate reader.
Bactericidal and Bacteriostatic Activity Kinetics. […] CADA 1:1 was employed instead of CADA 1:2 in this study because of its lowered turbidity in comparison. 180 μL of liquid E. coli culture was added to each well of a 96-well plate and brought up to 200 μL with either IL treatment or growth media alone if untreated. […] However, the cells treated with sublethal concentrations of IL still show what seem to be minor inhibitory interactions with the IL before exiting the lag phase and starting to grow. […] The turbidity of longer chain choline carboxylic acid-based ILs is quite high in aqueous solution and can falsely be determined as growth in OD measurements. Previous studies have shown that the critical micellar concentration (CMC) tends to […] with alkyl chain length and ionic strength, which could potentially affect antimicrobial efficacy. Therefore, IL solutions in sterile water at the same concentrations used to treat the bacteria were utilized as a control and subtracted from the wells with E. coli cells receiving IL treatment.
Integration of Growth Inhibition Following First-Order Kinetics. […] This was achieved by plotting In([A]T/[A]0) vs. time during the growth period to produce a linear representation of the logarithmic growth. Once the integrations were performed and plotted, rate constants were extracted with uncertainty from the slope of the trendlines. For the untreated cells and cells treated with sublethal concentrations, the logarithmic growth was positive, therefore, the rate constant should be positive. […] The rate of inhibition (k=0.0055±0.0002) was almost one-third of the growth rate of the cells that received no treatment, meaning that the inhibition is occurring immediately and for the duration of the study, suppressing the natural growth of the cells by 70%.

[1] = tested on: Human embryonic kidney (HEK-293) cells
Method: Cytotoxicity Studies. Human embryonic kidney (HEK-293) cells were treated in vitro with four of the top candidates (CADA 1:1, CADA 1:2, CA2DE 1:2, and CA3DE 1:2) to determine the concentration at which the IL dosage is toxic to human cells. 1% (w/v) solutions of each IL in sterile water were prepared similarly to the MBC experiments before addition at five different concentrations. The HEK cells were incubated with the IL treatments for 24 hours and then prepared with CellTiter-Glo(R) Luminescent Cell Viability reagent (100 μL per well). Brightfield microscopy images were used to qualitatively depict the concentration at which the cells were no longer viable, while a 96-well plate reader was used to quantitatively determine the percent viability of the cells at each concentration of the ILs. Quantitative measurements were performed in triplicate.
Human Biocompatibility Studies. […]
The viability of the cells was then quantified by preparing the IL-treated cells with 100 μL of CellTiter-Glo(R) Luminescent Cell Viability reagent in each well and measuring the luminescence on the plate reader. […] The results are expressed as percent viability and present as mean±standard deviation of three independent experiments (FIGS. 8A-8D). […]

E. coli [BL21(DE3)] = experiment: Minimal Bactericidal Concentration (MBC) measurements, E. coli
Method: (§1) Bacterial Cell Culturing. Expression cells from frozen stock were streaked onto a kanamycin-selected lysogeny broth (LBKan) agar plate using a sterile loop and incubated overnight at 37° C. One colony was then taken from the plate the next day to inoculate 50 mL of sterile LBKan broth and shaken at 37° C. until reaching a growth concentration of 4×10^8 CFU/mL. This protocol was used for bacterial cell culture preparation in all of the experiments described below.
Minimal Bactericidal Concentration (MBC) Measurements. E. coli cells were cultured as described above and aliquoted into sterile tubes. 1%, 10%, and 100% (w/v) solutions of IL in sterile water (correcting for water percentage of the IL) were prepared and sonicated for 15 minutes at 40° C. before addition to the liquid culture. IL solutions were then added to E. coli at varying percentages (v/v), allowing calculation of the actual concentration of IL that was added to the culture. 100 μL of each solution was then spread onto an LBKan agar plate and incubated overnight at 37° C. […] Each IL solution was tested in triplicate.

MRSA [BAA-1708] = experiment: Growth inhibition / MBC of Methicillin Resistant Staphylococcus aureus (MRSA); conditions: Table 2; 1:2 mole ratio ILs
Method: as §1
Growth Inhibition of Methicillin Resistant Staphylococcus Aureus (MRSA). 10% (w/v) solutions of IL in sterile water were prepared similarly to the E. coli MBC experiments. ILs with anion chain lengths of 8-12 carbons at 1:2 mole ratio of choline to anion were added to MRSA at varying concentrations to determine the lowest concentration in which growth was inhibited. Concentrations were then compared to values obtained for E. coli for each solution.

[2] = Table 1, lowest IL concentration with no growth on LBKan agar plate, triplicate

Compound | suppression of the natural growth of the cells (E. coli; lethal concentration) [%] | rate of inhibition k (E. coli; lethal concentration, first-order fit of OD600) | OD600 course at lethal concentration (E. coli; lethal concentrations, 16 hours) | delay of normal growth after the untreated cells entered the log phase (E. coli; sublethal doses, extended lag phase) | growth rate relative to the rate of the untreated cells (E. coli; sublethal treatment) | growth rate constant k (E. coli; sublethal treatment, first-order fit of OD600) | percent viability [1] | E. coli MBC (E. coli [BL21(DE3)]; [2]) [µM] | MRSA MBC (MRSA [BAA-1708]) [µM] | E. coli MBC / killing efficacy concentration (E. coli [BL21(DE3)]) [µM] | E. coli MBC (E. coli [BL21(DE3)]; Table 2, comparison with MRSA) [µM]
CCCCCCCCCC(=O)[O-].C[N+](C)(C)CCO [CADA 1:1, Choline Decanoate 1:1] | 70 | 0.0055±0.0002 | inhibited immediately with a steady decrease in OD600 | about two | 20-25% | 0.0039±0.0002 | over 97% | 3480 | – | – | –
Choline Decanoate 1:2 [CADA 1:2] | – | – | – | – | – | – | > 60% | 560 | 2230 | 560 | 560
